Measurements as given in US10674755B2, “Organic Compounds” (GIVAUDAN SA, priority 2013, dated 2020).

Columns and labels:
[1] = Mango-flavoured beverage taste evaluation by a panel of experienced tasters; conditions: 0.5 ppm dosed to mango drink (mango flavour 0.05% w/w, mango juice 0.18% w/w, sugar 8% w/w, citric acid 0.1% w/w)
Protocol: A mango-flavoured beverage was prepared using a standard mango flavour (0.05% w/w), mango juice (0.18% w/w), sugar (8% w/w) and citric acid (0.1% w/w).

[2] = Beef bouillon taste evaluation by a panel of experienced tasters
Protocol: A beef bouillon was prepared using bouillon cubes obtained from a local supermarket.

[3] = 0.5 ppm dosed to beef bouillon from bouillon cubes
[4] = 40 ppb added to beef bouillon from bouillon cubes

SMILES	taste of the mango drink versus the reference drink (panel agreement) [1]	taste of the bouillon versus the reference (panel agreement) [2, 3]	taste of the bouillon versus the reference (panel agreement) [2, 4]
CCCCCCCC/C=C\CCCCCCCC(=O)NCCC(C)C [Example 4, N-isopentyloleamide]	tasted somewhat more astringent and fruity and had more body		
CCCCCCCC/C=C\CCCCCCCC(=O)NCCCC(N)=O [Example 6, N-(4-amino-4-oxobutyl)oleamide]		tasted more full and had more mouthfeel than the reference	
CCCCCCCCCCCCCCCCCCCC(=O)NCCO [Example 9, N-(2-hydroxyethyl)eicosanamide]			tasted more fatty, beefier and smoky, tasted more fully and had more body than the reference
CCCCCCCC/C=C\CCCCCCCC(=O)NCCCSC [Example 2, N-(3-(methylthio)propyl)oleamide]	tasted more tropical and more juicy than the reference drink		
CCCCC/C=C\C/C=C\C/C=C\C/C=C\CCCC(=O)NCCO [Example 10, N-(2-hydroxyethyl)arachidonamide]		had more mouthfeel and tasted more salty and more umami than the reference	tasted saltier, sweeter, more fatty and slightly more umami than the reference, and had more mouthfeel
CC/C=C\C/C=C\C/C=C\CCCCCCCC(=O)NCCO [Example 8, N-(2-hydroxyethyl)linolenamide]			tasted more fatty, and slightly more salty than the reference
